The results in this text go back to patent US9597407B2, “Targeted antimicrobial moieties” (C3 Jian, Inc., priority 2009, dated 2017).

“Also recorded” adds a separate entry of the source. Ends that are not written are not given here.

For one experiment, the system named is bacteria. In words: Binding of targeting peptides to microorganisms (Table 3). To be noted: preferably 1x PBS; for Target(s) (microorganism bound by the targeting peptide) / Target(s) (microorganisms bound by the targeting peptide): peptide binding in aqueous buffers that varied depending on peptide solubility; for Target(s): microorganism bound by the targeting peptide, binding in aqueous buffers chosen by peptide solubility.

The subject of another experiment is microorganisms. The experiment in a line: Morphology, biofilm and growth disruption by peptides (Table 5). It counts as cell-based. The arrangement: key: A: Peptide aggregates; B: Less hyphal formation; Clumps; Diffuse clumps and small polyps; F: Diffuse growth; H: Thin; I: Growth inhibition; Microcolony formation; Rippled; Small polyps; Thick; W: Halo formation on top, microlonies on bottom. An excerpt: In certain embodiments peptides that induce alterations in phenotype or other biological activities can also be used as antimicrobial effector moieties.

Regarding “PF-C069 (NALMLREMQLAKNIKVEVTDVLSNKKYC; Peptide with targeting and/or antimicrobial activity)”, the “Target(s) (microorganism bound by the targeting peptide)” value with bacteria is “A. naeslundii; also recorded: F. nucleatum; also recorded: P. gingivalis; also recorded: S. mutans; also recorded: T. denticola”. Further, in the experiment with microorganisms (F. nucleatum), the “Organism, effect (morphology, biofilm and growth disruption)” value is reported as “F. nucleatum (T)”.
Take “PF-C071 (QVIVKIL; Peptide with targeting and/or antimicrobial activity)”: the “Target(s) (microorganism bound by the targeting peptide)” value with bacteria is “A. naeslundii; also recorded: F. nucleatum; also recorded: S. mutans”. Moreover, the “Organism, effect (morphology, biofilm and growth disruption)” value in the experiment with microorganisms (F. nucleatum) is reported as “F. nucleatum (T)”.
Take “PF-C075 (KALVISVFAIVFSIIFVKFFYWRDKK; Peptide with targeting and/or antimicrobial activity)”: in the experiment with bacteria, the “Target(s) (microorganism bound by the targeting peptide)” value is “A. naeslundii; also recorded: F. nucleatum; also recorded: P. gingivalis; also recorded: S. mutans; also recorded: T. denticola”. In addition, the “Organism, effect (morphology, biofilm and growth disruption)” value in the experiment with microorganisms (F. nucleatum) is on record as “F. nucleatum (T)”; in the experiment with microorganisms (P. gingivalis), “P. gingivalis (R)”; in the experiment on microorganisms (S. mutans) it was “S. mutans (F)”.
Consider “PF-C084 (FFSVIFLFGLNYLICNSPLFNILR; Peptide with targeting and/or antimicrobial activity)”, for which the “Target(s) (microorganism bound by the targeting peptide)” value with bacteria is given as “A. naeslundii; also recorded: F. nucleatum; also recorded: P. gingivalis; also recorded: S. mutans”. Also, the “Organism, effect (morphology, biofilm and growth disruption)” value in the experiment on microorganisms (F. nucleatum) was “F. nucleatum (T)”; in the experiment with microorganisms (P. gingivalis), “P. gingivalis (R)”; with microorganisms (S. mutans), “S. mutans (F)”.
For the substance “PF-C088 (DIANNILNSVSERLIIA; Peptide with targeting and/or antimicrobial activity)”, in the experiment with bacteria, the “Target(s) (microorganism bound by the targeting peptide)” value is given as “A. naeslundii; also recorded: F. nucleatum; also recorded: P. gingivalis; also recorded: S. mutans; also recorded: T. denticola”. Also, the “Organism, effect (morphology, biofilm and growth disruption)” value is listed as “F. nucleatum (H)” in the experiment on microorganisms (F. nucleatum), “P. gingivalis (R)” in the experiment on microorganisms (P. gingivalis) and “S. mutans (I)” with microorganisms (S. mutans).
Take “PF-C091 (ASNTPRFVRLTLFNFYSKIWNVTHLFLFNNL; Peptide with targeting and/or antimicrobial activity)”: the “Target(s) (microorganism bound by the targeting peptide)” value with bacteria is recorded as “A. naeslundii; also recorded: F. nucleatum; also recorded: P. gingivalis; also recorded: S. mutans; also recorded: T. denticola”. The “Organism, effect (morphology, biofilm and growth disruption)” value in the experiment on microorganisms (F. nucleatum) was “F. nucleatum (T)”.
Taken in the same sequence, the figures for “PF-C120 (ASLSTMTFKVMELKELIILLCGLTMLMIQTEFV; Peptide with targeting and/or antimicrobial activity)” were “A. naeslundii; also recorded: F. nucleatum; also recorded: P. gingivalis; also recorded: S. mutans; also recorded: T. denticola” and “F. nucleatum (T)”.
Turning to “PF-C131 (QWIVAKREIRMHIYCHISVIHVIIFFG; Peptide with targeting and/or antimicrobial activity)”, the “Target(s) (microorganism bound by the targeting peptide)” value with bacteria is “A. naeslundii; also recorded: F. nucleatum; also recorded: P. gingivalis; also recorded: S. mutans”. Also, the entries for the “Organism, effect (morphology, biofilm and growth disruption)” value with microorganisms (F. nucleatum) and in the experiment on microorganisms (S. mutans) were “F. nucleatum (T)” and “S. mutans (F)”, respectively.
Consider “PF-C136 (LILSYQASVYPLFAYLCQQKDY; Peptide with targeting and/or antimicrobial activity)”, for which, in the experiment on bacteria, the “Target(s) (microorganism bound by the targeting peptide)” value is on record as “A. naeslundii; also recorded: F. nucleatum; also recorded: P. gingivalis; also recorded: S. mutans; also recorded: T. denticola”. The “Organism, effect (morphology, biofilm and growth disruption)” value is “F. nucleatum (C)” with microorganisms (F. nucleatum) and “P. gingivalis (R)” with microorganisms (P. gingivalis).
With “PF-C137 (QRMYWFKRGFETGDFSAGDTFAELK; Peptide with targeting and/or antimicrobial activity)”, the “Target(s) (microorganism bound by the targeting peptide)” value with bacteria was “A. naeslundii; also recorded: F. nucleatum; also recorded: P. gingivalis; also recorded: S. mutans”. The “Organism, effect (morphology, biofilm and growth disruption)” value with microorganisms (F. nucleatum) is “F. nucleatum (T)”.
“PF-C139 (LLASHPERLSLGVFFVYRVLHLLLENT; Peptide with targeting and/or antimicrobial activity)”: the “Target(s) (microorganism bound by the targeting peptide)” value in the experiment on bacteria was “A. naeslundii; also recorded: F. nucleatum; also recorded: P. gingivalis; also recorded: S. mutans; also recorded: T. denticola”. Also, the “Organism, effect (morphology, biofilm and growth disruption)” value in the experiment on microorganisms (S. mutans) is given as “S. mutans (F)”.
For “PF-C142 (DFPPLSFFRRRFHAYTAPIDNFFGANPF; Peptide with targeting and/or antimicrobial activity)”, in the experiment with bacteria, the “Target(s) (microorganism bound by the targeting peptide)” value is listed as “A. naeslundii; also recorded: F. nucleatum; also recorded: P. gingivalis; also recorded: S. mutans; also recorded: T. denticola”. In addition, the “Organism, effect (morphology, biofilm and growth disruption)” value in the experiment on microorganisms (S. mutans) is recorded as “S. mutans (I)”.
Consider “PF-C143 (VVFGGGDRLV; Peptide with targeting and/or antimicrobial activity)”, for which the “Target(s) (microorganism bound by the targeting peptide)” value in the experiment with bacteria is on record as “A. naeslundii; also recorded: F. nucleatum; also recorded: P. gingivalis; also recorded: S. mutans; also recorded: T. denticola”. The “Organism, effect (morphology, biofilm and growth disruption)” value with microorganisms (F. nucleatum) is recorded as “F. nucleatum (C)”.
With “PF-C145 (YGKESDP; Peptide with targeting and/or antimicrobial activity)”, the “Target(s) (microorganism bound by the targeting peptide)” value in the experiment with bacteria is “A. naeslundii; also recorded: F. nucleatum; also recorded: P. gingivalis; also recorded: S. mutans; also recorded: T. denticola”. Also, the “Organism, effect (morphology, biofilm and growth disruption)” value with microorganisms (F. nucleatum) is “F. nucleatum (C)”; in the experiment on microorganisms (S. mutans) it was “S. mutans (I)”.
With “PF-C180 (TVEELDKAFTWGAAAALAIGVIAINVGLAAGYCYNNNDVF; Peptide with targeting and/or antimicrobial activity)”, in the experiment on bacteria, the “Target(s) (microorganism bound by the targeting peptide)” value is given as “F. nucleatum; also recorded: P. gingivalis; also recorded: S. mutans; also recorded: T. denticola”. Further, the results for the “Organism, effect (morphology, biofilm and growth disruption)” value with microorganisms (P. gingivalis) and in the experiment on microorganisms (S. mutans) were “P. gingivalis (R)” and “S. mutans (S)”, respectively.
Turning to “PF-C181 (KMRAGQVVFIYKLILVLLFYVLQKLFDLKKGCF; Peptide with targeting and/or antimicrobial activity)”, the “Target(s) (microorganism bound by the targeting peptide)” value in the experiment on bacteria is recorded as “P. gingivalis”. In the experiment on microorganisms (F. nucleatum), the “Organism, effect (morphology, biofilm and growth disruption)” value is “F. nucleatum (T)”.
As for “PF-C291 (HPFLTGTGCPLFLIFRLFFVKAYFSFTVF; Peptide with targeting and/or antimicrobial activity)”, the “Target(s) (microorganism bound by the targeting peptide)” value with bacteria is on record as “A. naeslundii; also recorded: F. nucleatum; also recorded: P. gingivalis; also recorded: S. mutans”. The “Organism, effect (morphology, biofilm and growth disruption)” value in the experiment on microorganisms (F. nucleatum) was “F. nucleatum (T)”; in the experiment with microorganisms (S. mutans), “S. mutans (F)”.
Take RESKLIAMADMIRRRI-NH2 [PF-545]: the “Target(s) (microorganisms bound by the targeting peptide)” value with bacteria is reported as “S. epidermidis; also recorded: E. coli; also recorded: P. aeruginosa; also recorded: S. pneumoniae; also recorded: E. faecalis; also recorded: C. jeikeium”. The “Organism, effect (morphology, biofilm and growth disruption)” value in the experiment with microorganisms (B. subtilis) is given as “B. subtilis (I)”; with microorganisms (C. albicans), “C. albicans (B)”; in the experiment with microorganisms (C. jeikeium), “C. jeikeium (H)”; in the experiment on microorganisms (E. faecalis), “E. faecalis (H)”.
SFMPEIQKNTIPTQMK [PF-512]: the “Target(s) (microorganisms bound by the targeting peptide)” value in the experiment with bacteria is “S. pneumoniae; also recorded: C. jeikeium”. Further, in the experiment on microorganisms (S. pneumoniae), the “Organism, effect (morphology, biofilm and growth disruption)” value is reported as “S. pneumoniae (H)”.
For the substance “SIGSMIGMYSFRHKTKHIKFTFGIPFILFLQFLLVYFYILK [PF-319]”, the “Target(s)” value in the experiment with bacteria is reported as “S. epidermidis; also recorded: B. subtilis; also recorded: C. difficile”. In addition, the “Organism, effect” value in the experiment with microorganisms (B. subtilis) is listed as “B. subtilis (C)”; in the experiment with microorganisms (S. epidermidis), “S. epidermidis (C)”.
SLQSQLGPCLHDQRH [PF-448]: the “Target(s) (microorganisms bound by the targeting peptide)” value in the experiment on bacteria is “S. epidermidis; also recorded: M. luteus; also recorded: P. mirabilis; also recorded: E. coli; also recorded: S. pneumoniae; also recorded: E. faecalis; also recorded: C. jeikeium; also recorded: C. jejuni”. Further, in the experiment on microorganisms (S. pneumoniae), the “Organism, effect (morphology, biofilm and growth disruption)” value was “S. pneumoniae (I)”.
As to VLPFPAIPLSRRRACVAAPRPRSRQRAS [PF-168], the “Target(s)” value in the experiment with bacteria was “S. epidermidis and M. luteus and E. coli and C. albicans and MRSA and C. jeikeium and C. jejuni”. Besides, the “Organism, effect” value in the experiment on microorganisms (MRSA) is “MRSA (I)”; with microorganisms (P. aeruginosa) it was “P. aeruginosa (H)”.
VMQSLYVKPPLILVTKLAQQN [PF-511]: the “Target(s) (microorganisms bound by the targeting peptide)” value in the experiment on bacteria is reported as “E. coli; also recorded: P. aeruginosa; also recorded: S. pneumoniae; also recorded: C. jeikeium”. For the same substance, the “Organism, effect (morphology, biofilm and growth disruption)” value with microorganisms (S. pneumoniae) is on record as “S. pneumoniae (H)”.
Consider “VWENRKKYLENEIERHNVFLKLGQEVIKGLNALASRGR [PF-257]”, for which the “Target(s)” value in the experiment on bacteria was “S. epidermidis”. In addition, in the experiment on microorganisms (M. luteus), the “Organism, effect” value was “M. luteus (R)”.
WSRVPGHSDTGWKVWHRW-NH2 [PF-547]: in the experiment on bacteria, the “Target(s) (microorganisms bound by the targeting peptide)” value is “S. epidermidis and E. coli and P. aeruginosa and C. albicans and MRSA and S. pneumoniae and E. faecalis”. In addition, the “Organism, effect (morphology, biofilm and growth disruption)” value with microorganisms (B. subtilis) is listed as “B. subtilis (I)”; in the experiment with microorganisms (E. faecalis), “E. faecalis (R)”; in the experiment with microorganisms (MRSA), “MRSA (M)”; in the experiment with microorganisms (S. epidermidis), “S. epidermidis (R)”.
